Experimental data as given in patent publication US12473296B2, “Perk inhibiting compounds” (HiberCell, Inc., priority 2019, dated 2025).

Legend:
[1] = molecular target: PERK (Homo sapiens (Human), UniProt Q9NZJ5); assay: PERK cellular assay (TR-FRET, HEK293-EGFP-eIF2α cells, tunicamycin-induced ER stress); type: cell-based; details: tunicamycin 2 hours, read-out: Cellular IC50 (μM) (EIF2a)
In short: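 Cells pre-incubated with inhibitor 30 min at 37 °C, then ER stress induced with […] tunicamycin for 2 h. TR-FRET read on lysates; ratio normalized to DMSO control as percent inhibition over a 10-point, 3-fold dilution series; IC50 from 4-parameter logistic fit.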

[2] = molecular target: EIF2AK3 (PERK) catalytic domain (amino acids 536-1116) (Homo sapiens (Human), UniProt Q9NZJ5); assay: PERK in vitro activity assay (isolated), TR-FRET kinase assay; details: isolated PERK enzyme, 1.5 μM ATP, GFP-eIF2a substrate; read-out: Biochemical IC50
In short: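 Human PERK catalytic domain (aa 536-1116) with 100-200 nM GFP-eIF2a in 50 mM HEPES pH 7.5, 10 mM MgCl2, 1.0 mM EGTA, 0.01% Brij-35; enzyme-started reaction run 45 min at room temperature. Stopped with 10 mM EDTA, 2 nM Tb-anti-phospho-eIF2a added for 90 min; IC50 from TR-FRET ratio by 4-parameter logistic fit.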

Chain of EIF2AK3 (PERK) catalytic domain (amino acids 536-1116) (Q9NZJ5 536-1116): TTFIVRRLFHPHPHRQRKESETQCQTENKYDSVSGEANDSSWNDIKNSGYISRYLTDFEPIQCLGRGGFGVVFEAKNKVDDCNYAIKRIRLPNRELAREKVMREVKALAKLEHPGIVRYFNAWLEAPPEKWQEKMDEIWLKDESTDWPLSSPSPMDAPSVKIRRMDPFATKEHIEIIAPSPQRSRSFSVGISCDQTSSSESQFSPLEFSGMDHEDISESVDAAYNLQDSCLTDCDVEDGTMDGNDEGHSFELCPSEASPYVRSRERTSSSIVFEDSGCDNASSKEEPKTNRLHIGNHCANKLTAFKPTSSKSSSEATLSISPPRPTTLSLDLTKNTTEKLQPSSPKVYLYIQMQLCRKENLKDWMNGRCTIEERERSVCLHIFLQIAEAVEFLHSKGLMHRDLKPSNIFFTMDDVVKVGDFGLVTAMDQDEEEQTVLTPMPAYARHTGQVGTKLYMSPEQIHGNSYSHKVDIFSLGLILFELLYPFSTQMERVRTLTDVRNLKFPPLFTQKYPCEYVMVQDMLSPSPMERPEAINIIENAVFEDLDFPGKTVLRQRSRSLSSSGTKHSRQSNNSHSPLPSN
Chain of PERK (Q9NZJ5 30-1116): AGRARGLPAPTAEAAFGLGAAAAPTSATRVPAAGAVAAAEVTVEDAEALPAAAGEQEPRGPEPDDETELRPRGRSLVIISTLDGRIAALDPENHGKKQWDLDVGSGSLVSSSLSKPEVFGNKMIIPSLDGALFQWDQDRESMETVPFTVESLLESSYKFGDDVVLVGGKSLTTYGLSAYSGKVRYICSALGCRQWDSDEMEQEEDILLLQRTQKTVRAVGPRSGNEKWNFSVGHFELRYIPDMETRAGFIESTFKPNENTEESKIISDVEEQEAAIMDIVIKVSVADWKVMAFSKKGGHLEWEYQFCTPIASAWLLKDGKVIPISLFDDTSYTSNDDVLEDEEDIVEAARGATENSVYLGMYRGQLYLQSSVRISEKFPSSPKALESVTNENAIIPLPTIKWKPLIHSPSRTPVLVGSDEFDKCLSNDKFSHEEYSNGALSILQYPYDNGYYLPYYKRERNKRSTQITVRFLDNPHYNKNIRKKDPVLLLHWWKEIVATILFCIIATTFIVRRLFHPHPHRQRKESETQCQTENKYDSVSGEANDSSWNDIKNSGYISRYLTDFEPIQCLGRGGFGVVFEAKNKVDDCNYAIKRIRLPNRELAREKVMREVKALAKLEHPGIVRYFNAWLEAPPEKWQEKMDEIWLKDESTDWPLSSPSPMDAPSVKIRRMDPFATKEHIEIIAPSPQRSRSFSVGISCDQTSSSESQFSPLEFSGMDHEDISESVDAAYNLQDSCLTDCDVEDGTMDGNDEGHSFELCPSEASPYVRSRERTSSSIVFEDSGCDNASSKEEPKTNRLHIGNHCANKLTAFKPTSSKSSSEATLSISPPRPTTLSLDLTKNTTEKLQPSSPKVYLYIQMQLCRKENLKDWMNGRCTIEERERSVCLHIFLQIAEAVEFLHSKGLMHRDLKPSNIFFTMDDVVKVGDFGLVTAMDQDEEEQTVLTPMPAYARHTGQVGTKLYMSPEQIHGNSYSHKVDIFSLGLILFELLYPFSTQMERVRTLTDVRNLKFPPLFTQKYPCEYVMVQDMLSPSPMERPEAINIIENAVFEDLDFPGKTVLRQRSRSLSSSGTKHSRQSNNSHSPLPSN

SMILES	IC50 [1] [µM]	IC50 [2] [nM]
CCc1cccc(C(O)C(=O)Nc2ccc(-c3cnc(N)c(C(=O)NC(C)C)c3)c(CC)c2)c1 (stereo not drawn) [Example 107, 2-amino-5-(2-ethyl-4-(2-(3-ethylphenyl)-2-hydroxyacetamido)phenyl)-N-isopropylnicotinamide]	0.251 to 0.5	51 to 100
CCc1cccc(CC(=O)Nc2ccc(-c3cnc(N)c(C(=O)NC(C)C)c3)c(C)c2)c1 [Example 205, 2-amino-5-(4-(2-(3-ethylphenyl)acetamido)-2-methylphenyl)-N-isopropylnicotinamide]	0.101 to 0.25	1 to 25
Cc1cc(NC(=O)C(O)c2cccc3c2OCC3)ccc1-c1cnc(N)c(C(=O)NC(C)C)c1 (stereo not drawn) [Example 74, 2-amino-5-(4-(2-(2,3-dihydrobenzofuran-7-yl)-2-hydroxyacetamido)-2-methylphenyl)-N-isopropylnicotinamide]	1 to 2	251 to 500
Cc1cc(NC(=O)C(O)c2ccccc2)ccc1-c1cnc(N)c(C(=O)NC(C)C)c1 (single isomer, unassigned) [Example 2, 2-amino-5-(4-(2-hydroxy-2-phenylacetamido)-2-methylphenyl)-N-isopropylnicotinamide]	0.101 to 0.25	1 to 25
Cc1cc(NC(=O)C(O)c2cc(F)cc(F)c2)ccc1-c1cnc(N)c(C(=O)NC(C)C)c1 (stereo not drawn) [Example 8, 2-amino-5-(4-(2-(3,5-difluorophenyl)-2-hydroxyacetamido)-2-methylphenyl)-N-isopropyl nicotinamide]	0.026 to 0.05	1 to 25
Cc1cc(NC(=O)Cc2cccc(C(F)(F)F)c2)ccc1-c1cnc(N)c(C(=O)NC(C)C)c1 [Example 202, 2-amino-N-isopropyl-5-(2-methyl-4-(2-(3-(trifluoromethyl)phenyl)acetamido)phenyl)nicotinamide]	0.101 to 0.25	51 to 100
Cc1cc(NC(=O)C(O)c2cc(F)cc(F)c2)ccc1-c1cnc(N)c(C(=O)NC2CNC2)c1 (stereo not drawn) [Example 44, 2-amino-N-(azetidin-3-yl)-5-(4-(2-(3,5-difluorophenyl)-2-hydroxyacetamido)-2-methylphenyl) nicotinamide]	3 to 4	1 to 25
Nc1ncc(-c2ccc(NC(=O)C(O)c3cc(F)cc(F)c3)cc2Cl)cc1C(=O)NCC(F)(F)F (stereo not drawn) [Example 86, 2-amino-5-(2-chloro-4-(2-(3,5-difluorophenyl)-2-hydroxyacetamido)phenyl)-N-(2,2,2-trifluoroethyl) nicotinamide]	0.001 to 0.025	1 to 25
Cc1cc(NC(=O)C(N)c2ccccc2)ccc1-c1cnc(N)c(C(=O)NC(C)C)c1 (stereo not drawn) [Example 7, 2-amino-5-(4-(2-amino-2-phenylacetamido)-2-methylphenyl)-N-isopropylnicotinamide]	> 5	1000 to 2000
Cc1cc(NC(=O)C(O)c2cc(F)cc(F)c2)ccc1-c1cnc(N)c(C(=O)NCC(F)(F)F)c1 (single isomer, unassigned) [Example 19, 2-amino-5-(4-(2-(3,5-difluorophenyl)-2-hydroxyacetamido)-2-methylphenyl)-N-(2,2,2-trifluoroethyl) nicotinamide]	0.101 to 0.25	101 to 250
CCc1cccc(C(O)C(=O)Nc2ccc(-c3cnc(N)c(C(=O)NC(C)C)c3)c(Cl)c2)c1 (stereo not drawn) [Example 94, 2-amino-5-(2-chloro-4-(2-(3-ethylphenyl)-2-hydroxyacetamido)phenyl)-N-isopropylnicotinamide]	0.001 to 0.025	1 to 25
CCNC(=O)c1cc(-c2ccc(NC(=O)C(O)c3cc(F)cc(F)c3)cc2C)cnc1N (single isomer, unassigned) [Example 13, 2-amino-5-(4-(2-(3,5-difluorophenyl)-2-hydroxyacetamido)-2-methylphenyl)-N-ethylnicotinamide]	0.501 to 1	1 to 25
Cc1cc(NC(=O)C(O)c2cccc(Cl)c2)ccc1-c1cnc(N)c(C(=O)NC(C)C)c1 (stereo not drawn) [Example 68, 2-amino-5-(4-(2-(3-chlorophenyl)-2-hydroxyacetamido)-2-methylphenyl)-N-isopropylnicotinamide]	0.501 to 1	101 to 250
Cc1cc(NC(=O)C(O)c2cc(F)cc(F)c2)ccc1-c1cnc(N)c(C(=O)NC2CC2)n1 (stereo not drawn) [Example 138, 3-amino-N-cyclopropyl-6-(4-(2-(3,5-difluorophenyl)-2-hydroxyacetamido)-2-methylphenyl) pyrazine-2-carboxamide]	0.026 to 0.05	1 to 25
CCc1cc(NC(=O)C(O)c2cc(F)cc(F)c2)ccc1-c1cnc(N)c(C(=O)NCC(F)(F)F)n1 (single isomer, unassigned) [Example 154, 3-amino-6-(4-(2-(3,5-difluorophenyl)-2-hydroxyacetamido)-2-ethylphenyl)-N-(2,2,2-trifluoroethyl) pyrazine-2-carboxamide]	0.001 to 0.025	1 to 25
Cc1cc(NC(=O)Cc2cccc3ncccc23)ccc1-c1cnc(N)c(C(=O)NC(C)C)c1 [Example 212, 2-amino-N-isopropyl-5-(2-methyl-4-(2-(quinolin-5-yl)acetamido)phenyl)nicotinamide]	> 5	1000 to 2000
Cc1cc(NC(=O)C(O)c2cc(F)cc(F)c2)ccc1-c1cnc(N)c(C(=O)NC(C)(C)C)c1 (single isomer, unassigned) [Example 17, 2-amino-N-(tert-butyl)-5-(4-(2-(3,5-difluorophenyl)-2-hydroxyacetamido)-2-methylphenyl) nicotinamide]	0.501 to 1	251 to 500
Nc1ncc(-c2ccc(NC(=O)C(O)c3cc(F)cc(F)c3)cc2Cl)nc1C(=O)NCC(F)(F)F (stereo not drawn) [Example 164, 3-amino-6-(2-chloro-4-(2-(3,5-difluorophenyl)-2-hydroxyacetamido)phenyl)-N-(2,2,2-trifluoroethyl) pyrazine-2-carboxamide]	0.251 to 0.5	1000 to 2000
CCc1cc(NC(=O)C(O)c2cc(F)cc(F)c2)ccc1-c1cnc(N)c(C(=O)NC(C)C)n1 (stereo not drawn) [Example 151, 3-amino-6-(4-(2-(3,5-difluorophenyl)-2-hydroxyacetamido)-2-ethylphenyl)-N-isopropylpyrazine-2-carboxamide]	0.026 to 0.05	1 to 25
Cc1cc(NC(=O)C(O)c2cc(F)cc(F)c2)ccc1-c1cnc(N)c(C(=O)NCC(C)C)c1 (stereo not drawn) [Example 20, 2-amino-5-(4-(2-(3,5-difluorophenyl)-2-hydroxyacetamido)-2-methylphenyl)-N-isobutylnicotinamide]	0.026 to 0.05	1 to 25
Cc1cc(NC(=O)C(O)c2cccc3c2OCC3)ccc1-c1cnc(N)c(C(=O)NC(C)C)c1 (stereo not drawn) [Example 75, 2-amino-5-(4-(2-(2,3-dihydrobenzofuran-7-yl)-2-hydroxyacetamido)-2-methylphenyl)-N-isopropylnicotinamide]	1 to 2	101 to 250
Cc1cc(NC(=O)C(O)c2cc(F)cc(F)c2)ccc1-c1cnc(N)c(C(=O)OC(C)C)c1 (single isomer, unassigned) [Example 42, isopropyl 2-amino-5-(4-(2-(3,5-difluorophenyl)-2-hydroxyacetamido)-2-methylphenyl) nicotinate]	0.026 to 0.05	1 to 25
Cc1cc(NC(=O)Cc2ccc3ccccc3c2)ccc1-c1cnc(N)c(C(=O)NC(C)C)c1 [Example 208, 2-amino-N-isopropyl-5-(2-methyl-4-(2-(naphthalen-2-yl)acetamido)phenyl)nicotinamide]	0.101 to 0.25	26 to 50
CNC(=O)c1nc(-c2ccc(NC(=O)C(O)c3cc(F)cc(F)c3)cc2C)cnc1N (stereo not drawn) [Example 135, 3-amino-6-(4-(2-(3,5-difluorophenyl)-2-hydroxyacetamido)-2-methylphenyl)-N-methylpyrazine-2-carboxamide]	0.026 to 0.05	1 to 25
Cc1cc(NC(=O)C(O)c2cc(F)cc(F)c2)ccc1-c1cnc(N)c(C(=O)N(C)C)c1 (stereo not drawn) [Example 23, 2-amino-5-(4-(2-(3,5-difluorophenyl)-2-hydroxyacetamido)-2-methylphenyl)-N,N-dimethylnicotinamide]	> 5	> 5000
Cc1cccc(C(O)C(=O)Nc2ccc(-c3cnc(N)c(C(=O)NC(C)C)c3)c(C)c2)c1 (stereo not drawn) [Example 66, 2-amino-5-(4-(2-hydroxy-2-(m-tolyl)acetamido)-2-methylphenyl)-N-isopropylnicotinamide]	1 to 2	101 to 250
Cc1cc(NC(=O)C(O)c2cc(F)cc(F)c2)ccc1-c1cnc(N)c(C(=O)NC2CN(C)C2)c1 (stereo not drawn) [Example 46, 2-amino-5-(4-(2-(3,5-difluorophenyl)-2-hydroxyacetamido)-2-methylphenyl)-N-(1-methylazetidin-3-yl)nicotinamide]	0.501 to 1	1 to 25
Cc1cc(NC(=O)C(O)c2cc(F)cc(F)c2)ccc1-c1cnc(N)c(C(=O)NCCO)c1 (stereo not drawn) [Example 56, 2-amino-5-(4-(2-(3,5-difluorophenyl)-2-hydroxyacetamido)-2-methylphenyl)-N-(2-hydroxyethyl) nicotinamide]	0.251 to 0.5	1 to 25
Cc1cc(NC(=O)C(O)c2cc(F)cc(F)c2)ccc1-c1cnc(C)c(C(=O)NC(C)C)c1 (stereo not drawn) [Example 177, 5-(4-(2-(3,5-difluorophenyl)-2-hydroxyacetamido)-2-methylphenyl)-N-isopropyl-2-methylnicotinamide]	0.251 to 0.5	26 to 50
Cc1cc(NC(=O)C(O)c2cccc3cnn(C)c23)ccc1-c1cnc(N)c(C(=O)NC(C)C)c1 (stereo not drawn) [Example 77, 2-amino-5-(4-(2-hydroxy-2-(1-methyl-1H-indazol-7-yl)acetamido)-2-methylphenyl)-N-isopropylnicotinamide]	3 to 4	501 to 1000
